Experiment [1] concerns the target T1, human CRF2a receptor (Homo sapiens, UniProt Q13324).
T1 construct: expressed in transfected cells; host or cells: TeloHEAC cells
T1 sequence (Q13324 1-411): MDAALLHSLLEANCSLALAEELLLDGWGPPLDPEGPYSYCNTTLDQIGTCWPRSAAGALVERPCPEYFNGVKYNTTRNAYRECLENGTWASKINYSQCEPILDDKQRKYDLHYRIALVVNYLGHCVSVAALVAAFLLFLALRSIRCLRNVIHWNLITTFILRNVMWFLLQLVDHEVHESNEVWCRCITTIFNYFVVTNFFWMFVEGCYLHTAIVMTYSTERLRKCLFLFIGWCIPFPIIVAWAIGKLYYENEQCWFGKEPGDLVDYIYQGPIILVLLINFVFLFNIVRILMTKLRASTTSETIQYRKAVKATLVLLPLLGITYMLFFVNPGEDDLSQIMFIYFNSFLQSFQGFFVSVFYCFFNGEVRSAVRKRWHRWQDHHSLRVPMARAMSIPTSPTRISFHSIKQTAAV
The experiment can be described thus: Activity at human CRF2a receptor, cAMP functional assay in TeloHEAC cells. The note with it: TeloHEAC cells stably expressing human CRF2a receptor, relative to urocortin 2 (100 nM = 100%). Type of experiment: cell-based. In short, it runs like this:
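TeloHEAC cells stably expressing human CRF2a (10000 cells/well) were treated with 16-point 1:2 compound dilutions in HBSS/20 mM HEPES with IBMX for 30 min at 37° C. cAMP was read by HTRF (665/620 nm ratio). EC50 was the concentration giving 50% activation, with 100 nM urocortin 2 set as 100%.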

The target of experiment [2] is T2, CFR1R receptor (Homo sapiens, UniProt P34998).
T2 construct: host or cells: CHO-K1 (clone 2)
T2 sequence (P34998 24-415): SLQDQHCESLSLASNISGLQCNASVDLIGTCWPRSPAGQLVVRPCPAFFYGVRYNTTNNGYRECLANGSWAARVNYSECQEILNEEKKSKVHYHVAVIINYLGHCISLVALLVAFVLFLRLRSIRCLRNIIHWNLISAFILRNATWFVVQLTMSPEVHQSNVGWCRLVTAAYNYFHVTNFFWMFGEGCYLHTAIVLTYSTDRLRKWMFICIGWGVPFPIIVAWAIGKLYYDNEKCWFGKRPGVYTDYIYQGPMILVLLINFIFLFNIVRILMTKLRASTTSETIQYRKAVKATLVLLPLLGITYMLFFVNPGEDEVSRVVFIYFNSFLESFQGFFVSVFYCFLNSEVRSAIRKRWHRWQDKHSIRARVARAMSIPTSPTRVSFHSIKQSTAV
Briefly: Activity at anti-target CFR1R receptor, cAMP assay in CRF1R-overexpression CHO-K1 cells. In kind it is cell-based. The settings on record: 100% = Sauvagine at 100 nM; for EC50: cAMP. The gist of the method: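 Signal is normalised to 100 nM Sauvagine, taken as 100% activation, in clone 2 cells plated at a final 4000 cells/well from frozen stocks.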

Here are results for five compounds from US20260001928A1 (CORTERIA PHARMACEUTICALS, priority 2022, published 2026).

*1 amine or outer side, *2 acyl side, *3 side chain or, on linkers, in order; H or OH if unused. Where a SMILES comes first, the peptide text is derived from it. Side-chain parts run from the residue outwards. [ ]: non-standard residue; d: D form. The star is where a group is joined. C16 diacid = O=C(O)CCCCCCCCCCCCCCC(=O)*; γGlu = O=C(O)[C@H](CCC(=O)[*:2])N[*:1]; NMeI = CC[C@H](C)[C@H](NC)C(=O)O; NMeV = CN[C@H](C(=O)O)C(C)C; Api = NC1(C(=O)O)CCNCC1; Hexanoyl = CCCCCC(=O)*; Aib = CC(C)(N)C(=O)O Where only a bound is given, the exact number is not on record here.

What is called EC50 is the concentration needed to bring the measured effect to its halfway point.

As to `CC[C@H](C)[C@H](NC)C(=O)N[C@H](C(=O)N[C@@H](CC(C)C)C(=O)N[C@@H](CO)C(=O)N[C@@H](CC(C)C)C(=O)N[C@@H](CC(=O)O)C(=O)N[C@@H](C(=O)N1CCC[C@H]1C(=O)N[C@H](C(=O)N[C@@H](CCCCN)C(=O)N[C@@H](CC(C)C)C(=O)N[C@@H](CCCCNC(=O)CC[C@H](NC(=O)CCCCCCCCCCCCCCC(=O)O)C(=O)O)C(=O)N[C@@H](CCCCN)C(=O)N[C@H](C(=O)N[C@@H](CC(C)C)C(=O)N[C@@H](CC(C)C)C(=O)N[C@@H](CCC(=O)O)C(=O)N[C@@H](CCC(N)=O)C(=O)N[C@@H](CCC(=O)O)C(=O)N[C@@H](CCCCN)C(=O)N[C@@H](CCC(N)=O)C(=O)N[C@@H](CCCCN)C(=O)N[C@@H](C)C(=O)N[C@@H](CCC(N)=O)C(=O)N[C@@H](CCCNC(=N)N)C(=O)N[C@@H](CCC(=O)O)C(=O)N[C@@H](CCC(N)=O)C(=O)N[C@@H](C)C(=O)N[C@@H](CCC(=O)O)C(=O)N[C@H](C(=O)N[C@@H](CC(N)=O)C(=O)NC1(C(=O)N[C@@H](CCC(N)=O)C(=O)N[C@H](C(=O)N[C@@H](CC(C)C)C(=O)N[C@@H](C)C(=O)N[C@@H](CCC(N)=O)C(=O)N[C@H](C(N)=O)C(C)C)[C@@H](C)CC)CCNCC1)[C@@H](C)O)[C@@H](C)CC)[C@@H](C)CC)C(C)C)C(C)C` [compound 154] (H-[NMeI]VLSLD[dV]PIKLK([γGlu-C16 diacid])KILLEQEKQKAQREQAETN[Api]QILAQV-NH2), a half-maximal effect in experiment [1] (EC50) was put at 0.52 nM. In addition, in experiment [2], the “Emax (% I)” value came out at 24 % I and the EC50 is over 250 nM.
The like results for `CC[C@H](C)[C@H](NC)C(=O)N[C@H](C(=O)N[C@@H](CC(C)C)C(=O)N[C@@H](CO)C(=O)N[C@@H](CC(C)C)C(=O)N[C@@H](CC(=O)O)C(=O)N[C@@H](C(=O)N1CCC[C@H]1C(=O)N[C@H](C(=O)N[C@@H](CCCCN)C(=O)N[C@@H](CC(C)C)C(=O)N[C@@H](CCCCNC(=O)CC[C@H](NC(=O)CCCCCCCCCCCCCCC(=O)O)C(=O)O)C(=O)N[C@@H](CCCCN)C(=O)N[C@H](C(=O)N[C@@H](CC(C)C)C(=O)N[C@@H](CC(C)C)C(=O)N[C@@H](CCC(=O)O)C(=O)N[C@@H](CCC(N)=O)C(=O)N[C@@H](CCC(=O)O)C(=O)N[C@@H](CCCCN)C(=O)N[C@@H](CCC(N)=O)C(=O)N[C@@H](CCCCN)C(=O)NC(C)(C)C(=O)N[C@@H](CCC(N)=O)C(=O)N[C@@H](CCCNC(=N)N)C(=O)N[C@@H](CCC(=O)O)C(=O)N[C@@H](CCC(N)=O)C(=O)N[C@@H](C)C(=O)N[C@@H](CCC(=O)O)C(=O)N[C@H](C(=O)N[C@@H](CC(N)=O)C(=O)NC1(C(=O)N[C@@H](CCC(N)=O)C(=O)N[C@H](C(=O)N[C@@H](CC(C)C)C(=O)N[C@@H](C)C(=O)N[C@@H](CCC(N)=O)C(=O)N[C@H](C(N)=O)C(C)C)[C@@H](C)CC)CCNCC1)[C@@H](C)O)[C@@H](C)CC)[C@@H](C)CC)C(C)C)C(C)C` [compound 155] (H-[NMeI]VLSLD[dV]PIKLK([γGlu-C16 diacid])KILLEQEKQK[Aib]QREQAETN[Api]QILAQV-NH2) were, in that order, 0.51 nM, 26 % I and over 250 nM.
In experiment [1], `CCCCCC(=O)N[C@H](C(=O)N[C@@H](CC(C)C)C(=O)N[C@@H](CO)C(=O)N[C@@H](CC(C)C)C(=O)N[C@@H](CC(=O)O)C(=O)N[C@@H](C(=O)N1CCC[C@H]1C(=O)N[C@H](C(=O)N[C@@H](CCCCN)C(=O)N[C@@H](CC(C)C)C(=O)N[C@@H](CCCCNC(=O)CC[C@H](NC(=O)CCCCCCCCCCCCCCC(=O)O)C(=O)O)C(=O)N[C@@H](CCCCN)C(=O)N[C@H](C(=O)N[C@@H](CC(C)C)C(=O)N[C@@H](CC(C)C)C(=O)N[C@@H](CCC(=O)O)C(=O)N[C@@H](CCC(N)=O)C(=O)N[C@@H](CCC(=O)O)C(=O)N[C@@H](CCCCN)C(=O)N[C@@H](CCC(N)=O)C(=O)N[C@@H](CCCCN)C(=O)N[C@@H](CCCCN)C(=O)N[C@@H](CCC(N)=O)C(=O)N[C@@H](CCCNC(=N)N)C(=O)N[C@@H](CCC(=O)O)C(=O)N[C@@H](CCC(N)=O)C(=O)N[C@@H](C)C(=O)N[C@@H](CCC(=O)O)C(=O)N[C@H](C(=O)N[C@@H](CC(N)=O)C(=O)NC(C)(C)C(=O)N[C@@H](CCC(N)=O)C(=O)N[C@H](C(=O)N[C@@H](CC(C)C)C(=O)N[C@@H](C)C(=O)N[C@@H](CCC(N)=O)C(=O)N[C@H](C(N)=O)C(C)C)[C@@H](C)CC)[C@@H](C)O)[C@@H](C)CC)[C@@H](C)CC)C(C)C)C(C)C` [compound 156] (Hexanoyl-VLSLD[dV]PIKLK([γGlu-C16 diacid])KILLEQEKQKKQREQAETN[Aib]QILAQV-NH2) registered an EC50 of 0.29 nM. Besides, in experiment [2], the “Emax (% I)” value is listed as 8 % I and the EC50 was over 250 nM.
The like results for `CCCCCC(=O)N[C@H](C(=O)N[C@@H](CC(C)C)C(=O)N[C@@H](CO)C(=O)N[C@@H](CC(C)C)C(=O)N[C@@H](CC(=O)O)C(=O)N[C@@H](C(=O)N1CCC[C@H]1C(=O)N[C@H](C(=O)N[C@@H](CCCCN)C(=O)N[C@@H](CC(C)C)C(=O)N[C@@H](CCCCNC(=O)CC[C@H](NC(=O)CCCCCCCCCCCCCCC(=O)O)C(=O)O)C(=O)N[C@@H](CCCCN)C(=O)N[C@H](C(=O)N[C@@H](CC(C)C)C(=O)N[C@@H](CC(C)C)C(=O)N[C@@H](CCC(=O)O)C(=O)N[C@@H](CCC(N)=O)C(=O)N[C@@H](CCC(=O)O)C(=O)N[C@@H](CCCCN)C(=O)N[C@@H](CCC(N)=O)C(=O)N[C@@H](CCCCN)C(=O)N[C@@H](CCCCN)C(=O)N[C@@H](CCC(N)=O)C(=O)N[C@@H](CCCNC(=N)N)C(=O)N[C@@H](CCC(=O)O)C(=O)N[C@@H](CCC(N)=O)C(=O)N[C@@H](C)C(=O)N[C@@H](CCC(=O)O)C(=O)N[C@H](C(=O)N[C@@H](CC(N)=O)C(=O)NC1(C(=O)N[C@@H](CCC(N)=O)C(=O)N[C@H](C(=O)N[C@@H](CC(C)C)C(=O)N[C@@H](C)C(=O)N[C@@H](CCC(N)=O)C(=O)N[C@H](C(N)=O)C(C)C)[C@@H](C)CC)CCNCC1)[C@@H](C)O)[C@@H](C)CC)[C@@H](C)CC)C(C)C)C(C)C` [compound 157] (Hexanoyl-VLSLD[dV]PIKLK([γGlu-C16 diacid])KILLEQEKQKKQREQAETN[Api]QILAQV-NH2) were, in that order, 0.32 nM, 30 % I and over 250 nM.
The like results for `CC[C@H](C)[C@H](NC(=O)[C@H](CCC(N)=O)NC(=O)C(C)(C)NC(=O)[C@H](CC(N)=O)NC(=O)[C@@H](NC(=O)[C@H](CCC(=O)O)NC(=O)[C@H](C)NC(=O)[C@H](CCC(N)=O)NC(=O)[C@H](CCC(=O)O)NC(=O)[C@H](CCCNC(=N)N)NC(=O)[C@H](CCC(N)=O)NC(=O)[C@H](CCCCN)NC(=O)[C@H](CCCCN)NC(=O)[C@H](CCC(N)=O)NC(=O)[C@H](CCCCN)NC(=O)[C@H](CCC(=O)O)NC(=O)[C@H](CCC(N)=O)NC(=O)[C@H](CCC(=O)O)NC(=O)[C@H](CC(C)C)NC(=O)[C@H](CC(C)C)NC(=O)[C@@H](NC(=O)[C@H](CCCCN)NC(=O)[C@H](CCCCNC(=O)CC[C@H](NC(=O)CCCCCCCCCCCCCCC(=O)O)C(=O)O)NC(=O)[C@H](CC(C)C)NC(=O)[C@H](CCCCN)NC(=O)[C@@H](NC(=O)[C@@H]1CCCN1C(=O)[C@H](NC(=O)[C@H](CC(=O)O)NC(=O)[C@H](CC(C)C)NC(=O)[C@H](CO)NC(=O)[C@H](CC(C)C)NC(=O)[C@@H](NC)C(C)C)C(C)C)[C@@H](C)CC)[C@@H](C)CC)[C@@H](C)O)C(=O)N[C@@H](CC(C)C)C(=O)N[C@@H](C)C(=O)N[C@@H](CCC(N)=O)C(=O)N[C@H](C(N)=O)C(C)C` [compound 159] (H-[NMeV]LSLD[dV]PIKLK([γGlu-C16 diacid])KILLEQEKQKKQREQAETN[Aib]QILAQV-NH2) were, in that order, 2.97 nM, 4 % I and over 250 nM.
